{
  "source": "patent US9771337B2",
  "about": "“Neprilysin inhibitors” (THERAVANCE BIOPHARMA R&D IP, LLC, priority 2011, dated 2017)",
  "data": [
    {"target": "T1, human NEP (Homo sapiens, UniProt P08473)", "T1 construct": "purchased R&D Systems, Minneapolis, Minn; 1182-ZN", "T1 sequence (P08473 whole entry)": "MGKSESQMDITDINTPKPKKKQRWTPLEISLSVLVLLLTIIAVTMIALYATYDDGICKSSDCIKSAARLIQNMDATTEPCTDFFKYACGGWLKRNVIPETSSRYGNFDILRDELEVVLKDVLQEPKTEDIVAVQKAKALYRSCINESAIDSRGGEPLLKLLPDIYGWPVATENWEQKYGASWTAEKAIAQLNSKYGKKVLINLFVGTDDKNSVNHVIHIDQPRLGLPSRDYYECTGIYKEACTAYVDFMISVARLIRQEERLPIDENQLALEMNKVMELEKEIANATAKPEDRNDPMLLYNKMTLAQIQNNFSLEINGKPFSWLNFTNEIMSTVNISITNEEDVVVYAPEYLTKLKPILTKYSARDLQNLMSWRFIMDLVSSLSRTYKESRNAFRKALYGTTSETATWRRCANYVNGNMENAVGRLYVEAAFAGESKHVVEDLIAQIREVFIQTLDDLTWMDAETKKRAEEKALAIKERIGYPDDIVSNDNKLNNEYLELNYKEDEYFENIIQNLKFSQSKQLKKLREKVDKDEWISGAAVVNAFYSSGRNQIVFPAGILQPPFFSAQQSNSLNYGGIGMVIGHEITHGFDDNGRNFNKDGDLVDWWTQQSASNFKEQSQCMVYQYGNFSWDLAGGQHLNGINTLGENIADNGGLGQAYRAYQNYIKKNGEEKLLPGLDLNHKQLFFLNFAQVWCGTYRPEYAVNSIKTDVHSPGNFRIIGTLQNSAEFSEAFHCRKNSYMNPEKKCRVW", "experiment": "In vitro enzyme inhibition assay, inhibitor potency at human NEP", "format": "biochemical", "details": "pKi values at human NEP; recombinant human NEP, fluorogenic peptide substrate 10 μM, 37° C.", "method": "The inhibitory activities of compounds at human and rat neprilysin (EC 3.4.24.11; NEP) and human angiotensin converting enzyme (ACE) were determined using in vitro assays as described below.\nRecombinant human NEP and recombinant human ACE were obtained commercially (R&D Systems, Minneapolis, Minn., catalog numbers 1182-ZN and 929-ZN, respectively). The fluorogenic peptide substrate Mca-D-Arg-Arg-Leu-Dap-(Dnp)-OH (Medeiros et al. (1997) Braz. J. Med. Biol. Res. 30:1157-62; Anaspec, San Jose, Calif.) and Abz-Phe-Arg-Lys(Dnp)-Pro-OH (Araujo et al. (2000) Biochemistry 39:8519-8525; Bachem, Torrance, Calif.) were used in the NEP and ACE assays respectively.\nThe assays were performed in 384-well white opaque plates at 37° C. using the fluorogenic peptide substrates at a concentration of 10 μM in Assay Buffer (NEP: 50 mM HEPES, pH 7.5, 100 mM NaCl, 0.01% polyethylene glycol sorbitan monolaurate (Tween-20), 10 μM ZnSO4; ACE: 50 mM HEPES, pH 7.5, 100 mM NaCl, 0.01% Tween-20, 1 μM ZnSO4).\nTest compounds were assayed over the range of concentrations from […] to 20 μM. Test compounds were added to the enzymes and incubated for 30 minute at 37° C. prior to initiating the reaction by the addition of substrate. Reactions were terminated after 20 minutes of incubation at 37° C. by the addition of glacial acetic acid to a final concentration of 3.6% (v/v).\nPlates were read on a fluorometer with excitation and emission wavelengths set to 320 nm and 405 nm, respectively. Inhibition constants were obtained by nonlinear regression of the data using the equation (GraphPad Software, Inc., San Diego, Calif.): v=v0/[1+(I/K′)] where v is the reaction rate, v0 is the uninhibited reaction rate, I is the inhibitor concentration and K′ is the apparent inhibition constant.\nCompounds of the invention were tested in this assay and found to have pKi values at human NEP as follows.", "units": {"Ki": "nM"}, "values": [
      {"smiles": "Cc1cc(-c2ccccc2C(=O)O)cc(C(=O)N[C@H](Cc2ccccc2Cl)[C@@H](O)C(=O)O)n1", "note": "[Example 2-1, 2-{2-[(1R,2R)-2-Carboxy-1-(2-chloro-benzyl)-2-hydroxy-ethylcarbamoyl]-6-methyl-pyridin-4-yl}-benzoic acid]", "Ki": "≤ 1"},
      {"smiles": "O=C(N[C@H](Cc1ccccc1Cl)[C@@H](O)C(=O)O)c1ccnc(-c2ccccc2C(=O)O)c1", "note": "[Example 2-2, 2-{4-[(1R,2R)-2-Carboxy-1-(2-chloro-benzyl)-2-hydroxy-ethylcarbamoyl]-pyridin-2-yl}-benzoic acid]", "Ki": "≤ 1"},
      {"smiles": "Cc1cc(C(=O)N[C@H](Cc2ccccc2Cl)[C@@H](O)C(=O)O)cc(-c2ccccc2C(=O)O)n1", "note": "[Example 2-4, 2-{4-[(1R,2R)-2-Carboxy-1-(2-chloro-benzyl)-2-hydroxy-ethylcarbamoyl]-6-methyl-pyridin-2-yl}-benzoic acid]", "Ki": "1.26 to 10"},
      {"smiles": "O=C(N[C@H](Cc1ccccc1Cl)[C@@H](O)C(=O)O)c1cncc(-c2ccccc2C(=O)O)c1", "note": "[Example 2-5, 2-{5-[(1R,2R)-2-Carboxy-1-(2-chloro-benzyl)-2-hydroxy-ethylcarbamoyl]-pyridin-3-yl}-benzoic acid]", "Ki": "1.26 to 10"},
      {"smiles": "O=C(N[C@H](Cc1ccccc1Cl)[C@@H](O)C(=O)O)c1cnc(O)c(-c2ccccc2C(=O)O)c1", "note": "[Example 2-7, 2-{5-[(1R,2R)-2-Carboxy-1-(2-chloro-benzyl)-2-hydroxy-ethylcarbamoyl]-2-hydroxy-pyridin-3-yl}-benzoic acid]", "Ki": "≤ 1"},
      {"smiles": "O=C(N[C@H](Cc1ccccc1Cl)[C@@H](O)C(=O)O)c1ccc(-c2ccccc2C(=O)O)nc1", "note": "[Example 2-8, 2-{5-[(1R,2R)-2-Carboxy-1-(2-chloro-benzyl)-2-hydroxy-ethylcarbamoyl]-pyridin-2-yl}-benzoic acid]", "Ki": "1.26 to 10"},
      {"smiles": "O=C(N[C@H](Cc1ccccc1Cl)[C@@H](O)C(=O)O)c1cnc(-c2ccccc2C(=O)O)c(Cl)c1", "note": "[Example 2-9, 2-{5-[(1R,2R)-2-Carboxy-1-(2-chloro-benzyl)-2-hydroxy-ethylcarbamoyl]-3-chloro-pyridin-2-yl}-benzoic acid]", "Ki": "1.26 to 10"},
      {"smiles": "O=C(N[C@H](Cc1ccccc1Cl)[C@@H](O)C(=O)O)c1cnc(-c2ccccc2C(=O)O)c(F)c1", "note": "[Example 2-10, 2-{5-[(1R,2R)-2-Carboxy-1-(2-chloro-benzyl)-2-hydroxy-ethylcarbamoyl]-3-fluoro-pyridin-2-yl}-benzoic acid]", "Ki": "1.26 to 10"},
      {"smiles": "O=C(N[C@H](Cc1ccccc1Cl)[C@@H](O)C(=O)O)c1cc(O)no1", "note": "[Example 2-11, (2R,3R)-4-(2-Chloro-phenyl)-2-hydroxy-3-[(3-hydroxy-isoxazole-5-carbonyl)-amino]-butyric acid]", "Ki": "1.26 to 10"},
      {"smiles": "O=C(N[C@H](Cc1ccccc1Cl)[C@@H](O)C(=O)O)c1cc(-c2ccccc2Cl)no1", "note": "[Example 2-12, (2R,3R)-4-(2-Chloro-phenyl)-3-{[3-(2-chloro-phenyl)-isoxazole-5-carbonyl]-amino}-2-hydroxy-butyric acid]", "Ki": "1.26 to 10"},
      {"smiles": "O=C(N[C@H](Cc1ccccc1Cl)[C@@H](O)C(=O)O)c1cc(-c2cccc(Cl)c2)no1", "note": "[Example 2-13, (2R,3R)-4-(2-Chloro-phenyl)-3-{[3-(3-chloro-phenyl)-isoxazole-5-carbonyl]-amino}-2-hydroxy-butyric acid]", "Ki": "1.26 to 10"},
      {"smiles": "O=C(N[C@H](Cc1ccccc1Cl)[C@@H](O)C(=O)O)c1cc(-c2ccc(Cl)cc2)no1", "note": "[Example 2-14, (2R,3R)-4-(2-Chloro-phenyl)-3-{[3-(4-chloro-phenyl)-isoxazole-5-carbonyl]-amino}-2-hydroxy-butyric acid]", "Ki": "1.26 to 10"},
      {"smiles": "O=C(N[C@H](Cc1ccccc1Cl)[C@@H](O)C(=O)O)c1cc(-c2ccccc2Cl)on1", "note": "[Example 2-15, (2R,3R)-4-(2-Chloro-phenyl)-3-{[5-(2-chloro-phenyl)-isoxazole-3-carbonyl]-amino}-2-hydroxy-butyric acid]", "Ki": "1.26 to 10"}
    ]}
  ]
}
